Data published in patent US12138251B2, “Fibrosis drug” (SCIENCE FARM LTD., priority 2019, dated 2024).

Experiments:
[1] = tested on: Human dermal fibroblasts; experiment: Immunoblot study of HPH-15 on TGF-β-treated human dermal fibroblasts; type: cell-based; conditions: after 2 ng/mL TGF-β for 24 hours, FIG. 3
Description: Collagen was observed by immunoblot.

[2] = tested on: bleomycin (BLM)-induced scleroderma mouse model
Experimental: An eight-to-ten-week-old female C57BL/6 mouse was injected subcutaneously with 150 μl of bleomycin (dissolved in physiological saline at 1 mg/ml) or with 150 μl of physiological saline as a control on the shaved back once a day for 6 weeks on alternate days. […] For each group, the body weights of the mice before the start of the test and at the time of the tissue collection (6 weeks later) were measured and compared. A Student's t-test was used for statistics. Four mice are used for each group. […] Mouse skin tissue for HE staining was collected with a scalpel and a knife. The skin tissue was fixed with 4% paraformaldehyde, and HE-stained slides were prepared from the paraffin block. A representative stained image of each group was shown (FIG. 4b). • c. For the dermal thickness, the distance between the epidermis-dermis boundary and the subcutaneous fatty tissue was measured using HE staining. For statistics, a parametric multiple comparison test by the Tukey-Kramer method was performed. Four mice were used for each group. […] In order to compare the amounts of collagen in the skin tissues, the skins were collected using a 4 mm Derma punch centering on the bleomycin-injected site on the back skin of the mice. For the measurement of the amount of collagen, Sircol Soluble Collagen Assay Kit (#S1000, Funakoshi Co., Ltd.) was used. The amount (μg) of collagen in the skin tissue was graphed using four mice for each group. For statistics, the Tukey-Kramer method was used.

[3] = tested on: InMyoFib human colon myofibroblast cell line; experiment: Immunoblot study of HPH-15 on TGF-β1-stimulated InMyoFib cells; type: cell-based; conditions: InMyoFib cells stimulated with TGF-β1 (5 ng/ml) and HPH-15 for 24 hours
Description: An InMyoFib human colon myofibroblast cell line, which reproduces an inflammatory bowel disease, was used. The culture condition was as follows: culture medium SmBM with 5% fetal bovine serum (FBS), antibiotics, and growth factors (insulin, hFGF-B, hEGF, FBS, and gentamicin/amphotericin-B). Cells at 10 to 17 passages were used.

## CC(C)(C)SCCNC(=S)c1cccc(C(=S)NCCSC(C)(C)C)n1 [HPH-15]
[1]; 5 μM HPH-15, 48 hours
  expression of collagen: suppressed
[1]; 10 μM HPH-15, 48 hours
  expression of collagen: suppressed
[2]; HPH-15 dose of 50 mg/kg/day or more, oral, 4 weeks, HE staining, FIGS. 4b, c
  dermal thickness increased by bleomycin: significantly reduced
[2]; each dose 50, 100, 200, 300 mg/kg/day oral for 4 weeks, 6 weeks after the start of the test
  systemic condition of the mice: kept well
[2]; each dose 50, 100, 200, 300 mg/kg/day oral for 4 weeks, 6 weeks after the start of the test, FIG. 4a
  body weight at skin collection compared with before the start of the test: no significant decrease in body weight
[3]; FIG. 1
  amount of phosphorylated Smad (P-Smad): reduced by the HPH-15 treatment in a dose-dependent manner
[3]; FIG. 2
  amount of collagen I: reduced by the HPH-15 treatment in a dose-dependent manner
